{"source": "paper PMC6934184", "about": "“Selective DNA-PKcs inhibition extends the therapeutic index of localized radiotherapy and chemotherapy” (The Journal of Clinical Investigation, 2019)", "key": {"[1]": {"experiment": "pharmacokinetic analysis in Calu-6 tumor–bearing mice", "type": "in vivo, mouse", "conditions": "30-mg/kg oral dose", "protocol": "by determining the absorbance at 570 nm of SRB stain dissolved in Tris base (10 mM, pH 10.5) using a spectrophotometer (BMG Labtech).\nIn vivo pharmacokinetic analyses\nAll animal experiments were performed in accordance with the Animals (Scientific Procedures) 1986 Act. 8-9 week old mice were purchased from Charles River Laboratories and housed under specific pathogen-free conditions under 12 hour light/dark cycles.\nFemale CD-1, CD-1 nude, BALB/c nude and C57BL/6 mice were treated with NU5455 (30 or 100 mg/kg prepared in 1% (v/v) acetic acid or NMP:Encapsin (30% aq):PEG4000 (1:6:3 v/v/v) dosed by oral gavage. Blood samples were collected into heparinized tubes at 15, 30, 60, 180 and 360 minutes post-gavage.\nBlood samples were centrifuged at 6700 x g for 3 minutes, the plasma removed and stored at -20°C prior to analysis for drug by HPLC with fluorescence detection. Aliquots of plasma (50 µl) were vigorously vortexed with acetonitrile (450 µl) and the precipitate removed by centrifugation at 6700 x g for 5 minutes. […]\n(§1) Samples (20 µl) were applied to a 10 x 0.46 cm Genesis C18 4 µm column (Grace Vydac) fitted with an in-line filter. […] Analytes were detected by fluorescence at 390 nm following excitation at 242 nm. Plasma concentrations were determined using linear standard curves (0.01 µM – 10 µM, R2 > 0.98) generated by extracting compounds from […]"}, "Huh7 cells": {"test_system": "Huh7 cells", "experiment": "Huh7 cells with single doxorubicin-loaded DC M1 bead (SRB cell density, γH2AX Western)", "type": "cell-based, Human", "protocol": "Exponentially growing HAP-1 DNA-PK proficient or deficient cells were seeded into 6-well plates and allowed to re-attach. Cells were then incubated with vehicle (DMSO) or NU5455 (5 µM) 1 hour prior to irradiation and for a further 24 hours post-irradiation. Cells were then washed in PBS and incubated in drug-free medium to allow for colony formation.\nTo quantify the number of proliferating versus confluent cells, cells were pulsed with 5-ethynyl-2’-deoxyuridine (EdU), and labeled using the Click-iT Plus EdU Alexa Fluor 647 Flow Cytometry Assay Kit together with FxCycle Violet Stain to label DNA (both Thermo Fisher) following the manufacturer’s instructions. Samples of cells taken from tho se used in the clonogenic assay were used to confirm the percentage of cells in each cell cycle phase.\nSamples were acquired on a Symphony A5 flow cytometer (Becton Dickinson, UK).\nCell cycle phase status was also confirmed by microscopy, using cells grown on coverslips i n 6-well plates. […] Coverslips were mounted using Prolong Glass with NucBlue (ThermoFisher) and images were acquired on the Leica TCS SP8 confocal fluorescence […]\nTreated cells were fixed with 10% (w/v) trichloroacetic acid (Fisher) at 4°C overnight. Cells were stained with sulphorhodamine B (SRB, 0.4% (w/v) in water), and cell density quantified […]\nby determining the absorbance at 570 nm of SRB stain dissolved in Tris base (10 mM, pH 10.5) using a spectrophotometer (BMG Labtech). […]\nBlood samples were centrifuged at 6700 x g for 3 minutes, the plasma removed and stored at -20°C prior to analysis for drug by HPLC with fluorescence detection. […]\nas §1\nReadings were taken every 2 hours for the first 10 hours and then at 24 hour intervals. […]"}}}
{"smiles": "CN(C(=O)CN1CCOCC1)c1ccc2sc3c(-c4cccc5c(=O)cc(N6CC7CCC(C6)O7)oc45)cccc3c2c1", "note": "[NU5455]", "values": [{"measurement": "period NU5455 concentrations in plasma, lung, tumor, or surrounding skin maintained at approximately 1 μM (0.6 μg/mL or μg/g tissue) or above", "setting": "[1]", "result": 3, "unit": "h"}, {"measurement": "inhibition of cell density, single agent", "setting": "Huh7 cells; 96 hours continuous, NU5455 1 μM or a single doxorubicin-loaded bead", "result": "~ 20%"}, {"measurement": "reduction of cell density, combination treatment", "setting": "Huh7 cells; 96 hours, NU5455 1 μM + single doxorubicin-loaded bead", "result": "57.7% ± 2.1%"}, {"measurement": "γH2AX protein levels (DNA damage induced by released doxorubicin)", "setting": "Huh7 cells; NU5455 1 μM + doxorubicin-loaded bead, 24–96 hours, Western blotting", "result": "augment and sustain the DNA damage"}]}
